Read-outs that look alike come from different tables or passages of the source.
Columns and labels:
[1] = Compound toxicity, ATPLite total ATP levels; assay type: cell-based; details: human, HepAD38 cells, three days after compound addition, concentration reducing total ATP levels by 50% relative to no drug controls
Method: Methods: HepAD38 cells are maintained as previously reported (Ladner et al, Antimicrob. Agents Chemother. 1997, […], 1715). Briefly, cells are passaged upon attaining confluency in DMEM/F12 media in the presence of 10% FBS, Penn/Strep, 250 μg/mL G418, and 1 ug/ml tetracycline. Novel compounds are screened by first washing cells three times with PBS to remove tetracycline, and plating in 96 well plates at 35,000 cells/well. Compounds dissolved in DMSO are then diluted 1:200 into wells containing cells. Five days after compound addition, material is harvested for analysis. For an extended 8 day analysis, cells are plated and treated as described above, but media and compound are refreshed on d2 and d5 post initial treatment.
Compound toxicity is evaluated by seeding cells at 15,000 cells/well and treating with compound as described above.

HBV = test: HepAD38 antiviral assay: reduction of viral product accumulation (virion DNA by qPCR, HBsAg or HBeAg by ELISA); assay type: cell-based, hepatitis B virus; details: HepAD38 cells, five days after compound addition, concentration reducing viral product accumulation by 50% relative to no drug controls, read-out: HepAD38 EC50
Outline: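 EC50 values represent 50% reduction of viral product accumulation in lysates or supernatants relative to untreated controls, with virion DNA read by qPCR and HBsAg/HBeAg by ELISA. Measurements followed 5 days of treatment, or 8 days with compound renewed on d2 and d5. Cells were tetracycline-depleted HepAD38 at 35,000/well, dosed with a 1:200 dilution of DMSO stocks.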

[2] = Hepatitis B virus, HePAD38, 120 h

Structure (SMILES) | CC50 at 3 days ([1]; class symbols) | EC50 (HBV; [2]) | CC50 at 3 days ([1]; numeric bounds) | EC50 (HBV)
O=C(Nc1cc(F)c(F)c(F)c1)c1ccc(Cl)c(S(=O)(=O)Cc2ccccn2)c1 [Example 48] | > 25000 nM | > 400 nM | – | –
CS(=O)(=O)OC[C@@H]1CC2CC[C@@H](C1)[C@H]2S(=O)(=O)c1cc(C(=O)Nc2cc(F)c(F)c(F)c2)ccc1Cl [Example 293] | – | < 100 nM | > 6250 nM | –
CC(=O)[C@]1(O)CC2CC[C@@H](C1)[C@H]2S(=O)(=O)c1cc(C(=O)Nc2cc(F)c(F)c(F)c2)ccc1Cl [Example 150] | 10000 to 25000 nM | < 100 nM | – | –
C[C@]1(O)C2CCC1C[C@@H](S(=O)(=O)c1cc(C(=O)Nc3cc(F)c(F)c(F)c3)ccc1Cl)C2 [Example 246] | 10000 to 25000 nM | 100 to 400 nM | – | –
O=C(Nc1cc(F)c(F)c(F)c1)c1ccc(Cl)c(S(=O)(=O)[C@H]2CC3CCC(C2)[C@]3(O)c2ncc[nH]2)c1 [Example 302] | 10000 to 25000 nM | < 100 nM | – | –
O=C(Nc1cc(F)c(F)c(F)c1)c1ccc(Cl)c(S(=O)(=O)CCCO)c1 [Example 7] | > 25000 nM | > 400 nM | – | –
C[C@]1(S(=O)(=O)c2cc(C(=O)Nc3cc(F)c(F)c(F)c3)ccc2Cl)CC[C@@H](O)CC1 [Example 16] | > 25000 nM | 100 to 400 nM | – | –
O=C(Nc1cc(F)c(F)c(F)c1)c1ccc(Cl)c(S(=O)(=O)[C@H]2CC3CCC(C2)[C@]3(O)c2nccs2)c1 [Example 322] | 10000 to 25000 nM | < 100 nM | – | –
O=C(Nc1cc(F)c(F)c(F)c1)c1ccc(Cl)c(S(=O)(=O)[C@H]2CC[C@@H](O)CC2)c1 [Example 4] | > 25000 nM | 100 to 400 nM | – | –
C[C@]1(O)C2CCC1C[C@H](S(=O)(=O)c1cc(C(=O)Nc3cc(F)c(F)c(F)c3)ccc1Cl)C2 [Example 253] | > 25000 nM | – | – | < 100 nM
COC(=O)N[C@@H](C(=O)NC1CC2CC[C@@H](C1)[C@H]2S(=O)(=O)c1cc(C(=O)Nc2cc(F)c(F)c(F)c2)ccc1Cl)C(C)C (stereo partly drawn) [Example 300] | – | < 100 nM | > 6250 nM | –
O=C(Nc1cc(F)c(F)c(F)c1)c1ccc(Cl)c(S(=O)(=O)[C@H]2CC3CCC(C2)[C@]3(O)c2ccncc2)c1 [Example 332] | 10000 to 25000 nM | < 100 nM | – | –
N#C[C@H]1CC2CC[C@@H](C1)[C@H]2S(=O)(=O)c1cc(C(=O)Nc2cc(F)c(F)c(F)c2)ccc1Cl [Example 284] | – | < 100 nM | > 3120 nM | –
[N-]=[N+]=N[C@]1(CO)CC2CC[C@@H](C1)[C@H]2S(=O)(=O)c1cc(C(=O)Nc2cc(F)c(F)c(F)c2)ccc1Cl [Example 287] | > 25000 nM | 100 to 400 nM | – | –
O=C(Nc1cc(F)c(F)c(F)c1)c1ccc(Cl)c(S(=O)(=O)[C@H]2C3CC[C@H]2C[C@](O)(c2ncc(-c4ccccc4)[nH]2)C3)c1 [Example 330] | < 10000 nM | < 100 nM | – | –
CC(C)(C)OC(=O)NC1CC2CC[C@@H](C1)[C@H]2S(=O)(=O)c1cc(C(=O)Nc2cc(F)c(F)c(F)c2)ccc1Cl (stereo partly drawn) [Example 297] | – | < 100 nM | > 6250 nM | –
O=C(Nc1cc(F)c(F)c(F)c1)c1ccc(Cl)c(S(=O)(=O)[C@H]2CC3CCC(C2)[C@]3(O)CO)c1 [Example 324] | – | – | > 12500 nM | < 100 nM
NC1CC2CC[C@@H](C1)[C@H]2S(=O)(=O)c1cc(C(=O)Nc2cc(F)c(F)c(F)c2)ccc1Cl (stereo partly drawn) [Example 298] | 10000 to 25000 nM | 100 to 400 nM | – | –
O=C1NC[C@]2(O1)C1CCC2C[C@H](S(=O)(=O)c2cc(C(=O)Nc3cc(F)c(F)c(F)c3)ccc2Cl)C1 [Example 274] | > 25000 nM | < 100 nM | – | –
O=C(Nc1cc(F)c(F)c(F)c1)c1ccc(Cl)c(S(=O)(=O)[C@H]2CC3CCC(C2)[C@]3(O)CNS(=O)(=O)C2CC2)c1 [Example 294] | – | < 100 nM | > 6250 nM | –
O=C(Nc1cc(F)c(F)c(F)c1)c1ccc(Cl)c(S(=O)(=O)[C@H]2C3CC[C@H]2C[C@](O)(c2ncc[nH]2)C3)c1 [Example 281] | > 25000 nM | < 100 nM | – | –
O=C(Nc1cc(F)c(F)c(F)c1)c1ccc(Cl)c(S(=O)(=O)[C@H]2C3CC[C@H]2C[C@](O)(COCc2ccccn2)C3)c1 [Example 317] | < 10000 nM | < 100 nM | – | –
O=C(Nc1cc(F)c(F)c(F)c1)c1ccc(Cl)c(S(=O)(=O)[C@H]2C3CC[C@H]2C[C@@H](c2ncc[nH]2)C3)c1 [Example 283] | < 10000 nM | 100 to 400 nM | – | –
O=C(Nc1cc(F)c(F)c(F)c1)c1ccc(Cl)c(S(=O)(=O)[C@H]2C3CC[C@H]2C[C@](O)(c2cc(-c4ccccc4)on2)C3)c1 [Example 220] | < 10000 nM | < 100 nM | – | –

From patent US10538532B2, “Hepatitis B antiviral agents” (ENANTA PHARMACEUTICALS, INC., priority 2016, dated 2020)
